For series [1] the following is noted: cited from earlier work.
Series [2] can be described thus: Pharmacokinetic study in beagle dogs. Particulars: for CL/F / Rel F(5 mg oral) / Tmax: beagle dogs; for Rel F(5 mg oral): relative to 5 mg oral; for AUC(0-inf) / AUC(0-t) / Cmax / MRT / half-life / Tmax: both, beagle, dog, plasma. As for the experimental part:
Eight beagle dogs (4 male and 4 female) participated in the study. […] Water was given ad libitum throughout the study. Food was provided 4 hours post-dose. Blood samples were collected at pre-dose (0 min) and at 3, 6, 9, 12, 15, 20, 30, 45 minutes; and at 1, 1.5, 2, 3, 4, 6, 8, 24 hours post-dose. After plasma-separation process, the samples were analyzed by a validated LC-MS/MS method.

In another series the test system is plasma proteins. As to conditions: cited from earlier work.
The next series deals with toad palate. Nature of the series: Nasal ciliotoxicity evaluation, in-situ toad palate model. In kind it is in vivo. Also noted: key to Ciliotoxicity: no effect: cilia on the mucosa was intact, dense and beating actively; mild: less than 25% ciliostasis; moderate: cilia was disarranged or only partial cilia left; all cilia lost and apical cell border was severe deformed. As to conditions: 0.2 ml, 4 h, light microscope 400×. As to the method: The nasal ciliotoxicity of zolpidem tartrate, solubilizing agents and several nasal solution formulations were investigated using an in-situ toad palate model. Briefly, 0.2 ml test formulations were administrated on a toad palate. […] The mucocilia was examined with a light microscope at enlargements of 400× (n=3˜6). Saline and a typical nasal mucociliary toxic agent—sodium deoxycholatee—were used as a negative and positive control, respectively. Study protocol was illustrated in Table 11, and the degree of ciliotoxicity caused by the test formulations was coarse classified as follows: “no effect”: cilia on the mucosa was intact, dense and beating actively; “mild”: less than 25% ciliostasis; “moderate”: cilia was disarranged or only partial cilia left; “severe”: all cilia lost and apical cell border was severe deformed.

The conditions of series [3]: cited from earlier work. This is another data set of the same source.
Where [4] appears, read: intranasal administration (ZLP-B01), 1.25 mg/dog.
Where [5] appears, read: intranasal administration (ZLP-B01), 2.5 mg/dog.
[6] abbreviates: intranasal administration (ZLP-B01), 5 mg/dog.

Counter-ions that a name gives are not always drawn.

Consider `Cc1ccc(-c2nc3ccc(C)cn3c2CC(=O)N(C)C)cc1` [Zolpidem, N,N,6-trimethyl-2-(4-methylphenyl)-imidazo[1,2-a]pyridine-3-acetamide], for which, in series [1] (after oral doses), the “time to peak plasma concentrations” value was no more than 3 h. In addition, the elimination half-life result in series [1] (in vivo) is “about 2.5 hours”. Also, the absolute bioavailability result in series [1] (oral, first-pass metabolism) was “about 70%”. In addition, the CL/F turned out to be 110 ± 41 L/h in series [2] (setting [4]); 144 ± 76 L/h in series [2] (setting [5]); 181 ± 137 L/h in series [2] (setting [6]); 204 ± 96 L/h in series [2] (oral administration (marketed tablet, Stilnox), 5 mg/dog); 110 ± 69 L/h in series [2] (oral administration (marketed tablet, Stilnox), 10 mg/dog). The “Rel F(5 mg oral)” value in series [2] (setting [4]) was 167%; in series [2] (setting [5]), 145%; in series [2] (setting [6]), 124%. The AUC(0-inf) in series [2] (inhaled or intranasal, 1.25 mg) is 12.9 ± 5.2 ng·h/mL; in series [2] (inhaled or intranasal, 2.5 mg), 22.4 ± 12.1 ng·h/mL; in series [2] (inhaled or intranasal, 5 mg), 38 ± 18.5 ng·h/mL; in series [2] (po, 5 mg), 30.7 ± 16.9 ng·h/mL; in series [2] (po, 10 mg) it was 121 ± 64.6 ng·h/mL. Further, the AUC(0-t) in series [2] (inhaled or intranasal, 1.25 mg) stood at 12.8 ± 5.24 ng·h/mL; in series [2] (inhaled or intranasal, 2.5 mg) it was 22.2 ± 12.2 ng·h/mL; in series [2] (inhaled or intranasal, 5 mg), 38 ng·h/mL; in series [2] (po, 5 mg), 30.6 ng·h/mL; in series [2] (po, 10 mg) it was 120 ± 64.4 ng·h/mL. The Cmax was 13 ± 6.36 ng/mL in series [2] (inhaled or intranasal, 1.25 mg); 22 ± 13.1 ng/mL in series [2] (inhaled or intranasal, 2.5 mg); 33.3 ng/mL in series [2] (inhaled or intranasal, 5 mg); 25.5 ng/mL in series [2] (po, 5 mg); 128 ± 59.7 ng/mL in series [2] (po, 10 mg). In addition, the MRT in series [2] (inhaled or intranasal, 1.25 mg) turned out to be 67.8 ± 10.8 min; in series [2] (inhaled or intranasal, 2.5 mg) it was 74.4 ± 49.8 min; in series [2] (inhaled or intranasal, 5 mg) it was 90 ± 19.8 min; in series [2] (po, 5 mg), 100 ± 27.6 min; in series [2] (po, 10 mg), 79.8 ± 18 min. Further, the half-life in series [2] (inhaled or intranasal, 1.25 mg) is 57 ± 10.8 min; in series [2] (inhaled or intranasal, 2.5 mg), 43.8 ± 13.8 min; in series [2] (inhaled or intranasal, 5 mg), 68.4 ± 11.4 min; in series [2] (po, 5 mg), 57.6 ± 10.2 min; in series [2] (po, 10 mg) it was 59.4 ± 12.6 min. For the same compound, the Tmax in series [2] (inhaled or intranasal, 1.25 mg, intranasal administration (ZLP-B01), 1.25 mg/dog) was 8.4 ± 1.8 min; in series [2] (inhaled or intranasal, 2.5 mg, intranasal administration (ZLP-B01), 2.5 mg/dog), 8.4 ± 4.2 min; in series [2] (inhaled or intranasal, 5 mg, intranasal administration (ZLP-B01), 5 mg/dog) it was 12.6 min; in series [2] (inhaled or intranasal, 5 mg, range over dogs, intranasal administration, 5 mg/dog) it was 3 to 15 min; in series [2] (po, 5 mg, oral administration (marketed tablet, Stilnox), 5 mg/dog), 41.4 min; in series [2] (po, 5 mg, range over dogs, oral administration, 5 mg/dog), 19.8 to 120 min. The Tmax in series [2] (po, 10 mg, oral administration (marketed tablet, Stilnox), 10 mg/dog) was 25.8 ± 11.4 min. In addition, the “bound to plasma proteins” value with plasma proteins is listed as “about 92%”.
Turning to “sodium deoxycholate [1% sodium deoxycholate]”, in the series on toad palate, the Ciliotoxicity result is reported as “severe” and the Optical microscopic observation entry is reported as “no cilia on the mucosa”.
Consider `Cc1ccc(-c2nc3ccc(C)cn3c2CC(=O)N(C)C)cc1` [Zolpidem tartrate], for which the aqueous solubility entry in series [3] (at 20° C.) is on record as “about 23 mg/ml”. In addition, the “solubility in water” value in series [3] (water) is reported as “slightly soluble”.

The CL/F is the apparent clearance, not corrected for the fraction that reaches the circulation. As usually defined, the AUC(0-inf) is total exposure, with the tail of the curve extrapolated. As usually defined, the AUC(0-t) is the area under the concentration-time curve up to a stated or last time point. A word on the Cmax: it is the peak of the concentration-time curve. Usually MRT stands for a mean duration of stay, worked out from the concentration-time curve. In general, half-life refers to the time needed for the level to fall by half in the phase considered. One may read the Tmax as the time at which the peak concentration occurs.

The values above are taken from US8916583B2, “Therapeutic compositions for intranasal administration of zolpidem” (Renascence Therapeutics Limited, priority 2012, dated 2014).
